This passage reports RP-LC retention time results from the METLIN SMRT retention time set (Domingo-Almenara et al. 2019).

This data set is described as follows: gradient 5% acetonitrile 3 min, to 50% in 2 min, to 85% in 15 min, held 3 min, 100 µL/min. The following applies: column: Zorbax Extend-C18 2.1 x 50 mm; eluents: water / acetonitrile, 0.1% formic acid. In outline: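 In both positive and negative ionization mode, a quadrupole time-of-flight mass spectrometer coupled to HPLC analyzed pure standards run in mixtures of ~100 molecules. The Zorbax Extend-C18 column (2.1 × 50 mm, 1.8 μm) was operated at 100 μL/min with water and acetonitrile, each containing 0.1% formic acid. The dead volume was 40 μL and the dwell volume 900 μL. Retention time came from adduct peaks that were computationally picked and individually inspected by hand.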
The molecule `CCOc1ccc(C2Cn3nnc(-c4nc(-c5cccc(C)c5)no4)c3CO2)cc1` (centres undefined) showed an RP-LC retention time of 1270 s.
On to `O=C(CN1C(=O)C2CCCN2C(=O)c2ccccc21)c1ccc(Br)cc1` (centres undefined), for which the RP-LC retention time worked out at 823 s.
The molecule `Cc1cnc(-c2ccncc2)n1CC1CN(S(=O)(=O)C(C)C)C1` came in with an RP-LC retention time of 573 s.
`Clc1ccc(Nc2c(-c3ccccc3Cl)nc3ccc(Cl)cn23)cc1` displayed an RP-LC retention time of 946 s.
Molecule `COc1ccc(-c2n[nH]c3c2C(c2ccc(OC)cc2OC)NC3=O)cc1` (centres undefined) yielded an RP-LC retention time of 736 s.
Molecule `COc1ccc(C)cc1NC(=O)N1CCN(c2cnn3c(C)nnc3c2)CC1` returned an RP-LC retention time of 648 s.
`CCOC(=O)C1CCN(C(c2cccnc2)c2c(NC(=O)c3ccco3)sc(C)c2C)CC1` (centres undefined) yielded an RP-LC retention time of 926 s.
Molecule `COc1cc2nccc(Oc3ccc(NC(=O)C4(C(=O)Nc5ccc(F)cc5)CC4)cc3)c2cc1OC` returned an RP-LC retention time of 833 s.
Under `COc1ccc(Cl)cc1NC(=O)CN1CCCC(COCc2ccccc2)C1` (centres undefined) stands 630 s; under `CCc1ccc(S(=O)(=O)N2CCc3c(c(-c4nnc(-c5ccc(F)cc5)o4)nn3C)C2)cc1`, 1050 s; under `COc1cccc2c(C)nc(NC3=NCN(CC4CCCO4)CN3)nc12` (centres undefined), 627 s.
Molecule `CCOc1cccc(-c2noc(Cc3nnc(-c4cccc(F)c4)o3)n2)c1` showed an RP-LC retention time of 1070 s.
Turning to `O=c1c(=O)n(-c2ccccc2)ccn1Cc1nc(-c2ccc(Cl)cc2)no1`, the RP-LC retention time was determined as 877 s.
Molecule `Cc1ccc(-n2ccc(=O)c(-c3nc(-c4ccccc4Br)no3)n2)cc1` returned an RP-LC retention time of 950 s.
`CCn1cc(-c2nc(CC(=O)N3CCN(c4ccccc4F)CC3)cs2)c2cccnc21` had an RP-LC retention time of 976 s.
In the case of `Cn1cc(-c2ccccc2)cc1C(=O)N1CCN(C2CCCCC2)CC1`, the RP-LC retention time amounted to 701 s.
As to `CC1CN(C(=O)CSc2cn(CC(=O)N3CCCCCC3)c3ccccc23)CC(C)O1` (centres undefined), the RP-LC retention time was found to be 897 s.
As to `Cc1c(Cl)cccc1N1C(=O)CN(S(C)(=O)=O)CC1(C)C(=O)NC1CCCCCCC1` (centres undefined), the RP-LC retention time amounted to 1010 s.
In turn, `CC(=O)Nc1ccc(C2(C(=O)NCc3ccc(F)c(Cl)c3)CCC2)cc1` had an RP-LC retention time of 795 s.
`CS(=O)(=O)Nc1ccc(-c2noc(CNC(=O)Cc3ccccc3)n2)cc1` registered an RP-LC retention time of 722 s.
Turning to `COc1cc(NC(=O)Cn2nc(N3CCCC(C)C3)c3ccccc3c2=O)cc(OC)c1` (centres undefined), the RP-LC retention time was determined as 1100 s.
For the molecule `Cn1c(CNC(=O)C2(C)CCCCC(=O)N2)nc2ccccc21` (centres undefined), the RP-LC retention time is 573 s.
Turning to `CC1=C(c2ccccc2)S(=O)(=O)N=C1N1CCCN(C(=O)COc2ccccc2)CC1`, the RP-LC retention time came out at 836 s.
Turning to `COc1ccc2[nH]c3c(c2c1)CCNC3c1ccc(C)cc1` (centres undefined), the RP-LC retention time is 654 s.
For `O=C(Cn1cnc(-c2cccs2)cc1=O)NCc1ccccc1OC(F)(F)F`, the RP-LC retention time was found to be 801 s.
`Cc1ccc(C(=O)Nc2ccc(N3CCN(C4CCCC4)C3=O)nc2)cc1N1CCCC1=O`: the RP-LC retention time was found to be 686 s.
Under `CCCN(Cc1ccc(Cl)cc1)Cc1cc(=O)n2cc(C)ccc2n1` stands 674 s.
Next, `COc1cccc(-c2nnc(Cc3nc(-c4ccccc4Cl)no3)o2)c1`: 1020 s.
The molecule `CCc1nc2cc(-c3noc(-c4ccc5c(c4)OCO5)n3)ccc2o1` returned an RP-LC retention time of 1150 s.
`CCOc1ccc(-c2noc(CN3C(=O)COc4cc(Cl)ccc43)n2)cc1` returned an RP-LC retention time of 1180 s.
Under `O=C(c1cn(-c2ccc(-c3nc(C4CC4)no3)cn2)cn1)N1CCc2ccccc2C1` stands 968 s.
Under `COC(=O)c1ccccc1NC(=O)Cc1csc(Nc2ccccn2)n1` stands 703 s.
Under `CNc1nc(Nc2ccccc2Cl)nc2ccccc12` stands 683 s.
In the case of `CCCCNC(=O)c1ccc2c(c1)NC(=O)C(CC(C)C)N2` (centres undefined), the RP-LC retention time stood at 754 s.
For the molecule `O=C1CN(C(=O)CSc2ccccc2)c2ccccc2N1`, the RP-LC retention time worked out at 694 s.
For `COc1ccc(CC(=O)N2CC(c3nc(C)no3)C3(CCOCC3)C2)cc1` (centres undefined), the RP-LC retention time is 712 s.
Next, `CC(=O)N1CCc2cc(N3CC(C(=O)Nc4cc(F)ccc4F)CC3=O)ccc21` (centres undefined): 712 s; `CC(=O)NCc1csc(C2CCCN(C(=O)COc3ccccc3)C2)n1` (centres undefined): 670 s.
`Cc1nc(-c2ccc3c(c2)n(CC(=O)N2CCc4ccccc42)c(=O)n3C(C)C)no1` yielded an RP-LC retention time of 922 s.
Next, `CC(Oc1ccc(-c2cnc3ccccc3n2)cc1)C(=O)NCCN(C)C` (centres undefined): 634 s.
Regarding `COC(=O)c1cnc2nc(C)ccc2c1Nc1ccccc1F`, the RP-LC retention time was 649 s.
The molecule `CCOc1ccc(CNC(=O)c2cnc(OC)nc2)cc1` displayed an RP-LC retention time of 732 s.
`CC(=O)[C@@]1(O)[C@H](C)C[C@H]2[C@@H]3C=C(C)C4=Cc5c(cnn5-c5ccccc5)C[C@]4(C)[C@H]3[C@@H](O)C[C@@]21C` displayed an RP-LC retention time of 1200 s.
The molecule `O=C(NCCCN1CCOCC1)c1c(OCC2CC2)cc(=O)n2c1CCCCC2` registered an RP-LC retention time of 568 s.
`Cc1ccc(-n2c(=O)n(C)c(=O)c3cc(C(=O)Nc4ccc5c(c4)OCCO5)cnc32)cc1`: the RP-LC retention time was found to be 892 s.
In the case of `O=C1N(c2cccc(F)c2)c2ncccc2S(=O)(=O)N1Cc1cccc(F)c1`, the RP-LC retention time was 1030 s.
Under `Cn1c(=O)n([C@@H]2CCN(C(=O)CCc3nc4ccccc4s3)C2)c2ncccc21` stands 733 s; under `Cn1nccc1C(=O)NCc1ccc(-c2nc(-c3ccc(F)cc3)no2)s1`, 930 s; under `COc1ccc2[nH]cc(CCNC(=O)Cn3nc4c(cc3=O)CCCC4)c2c1`, 714 s.
In the case of `Cc1oc(C2CCN(S(=O)(=O)c3ccccc3F)CC2)nc1C(=O)N1CCCC1`, the RP-LC retention time turned out to be 886 s.
Turning to `COC(=O)C1=C(CN2CCN(C)CC2)NC(=O)NC1c1ccc(OC)c(OC)c1` (centres undefined), the RP-LC retention time is 567 s.
With `Cn1cnnc1CC1CCN(C(=O)Nc2ccccc2)C1` (centres undefined), the RP-LC retention time stood at 587 s.
Take `Cc1ccccc1N1C(=O)CN(S(C)(=O)=O)CC1(C)C(=O)NCc1ccc(F)cc1` (centres undefined): the RP-LC retention time was found to be 818 s.
With `COCCCn1c(=O)c2ccccc2n(Cc2nc(-c3cccc(C(F)(F)F)c3)no2)c1=O`, the RP-LC retention time came out at 1080 s.
The molecule `CNC(=O)N1CCCC(c2cccc(C(=O)NCc3ccccc3C(F)(F)F)c2)C1` (centres undefined) showed an RP-LC retention time of 838 s.
Next, `CCOC(=O)c1nc(NCCc2ccc(OCC)cc2)c2ccccc2n1`: 836 s; `CCOC(=O)c1cc(S(=O)(=O)N2CCCC2C(=O)Nc2nc3ccc(OC)cc3s2)cn1C` (centres undefined): 947 s.
Under `CCNC(=O)c1cc(=O)[nH]c2c(Cl)cccc12` stands 614 s; under `O=C(CSc1ccc(F)cc1)Nc1cccc2ccc(-n3ccnc3)nc12`, 659 s.
Molecule `CC1=C(c2ccc(F)cc2)S(=O)(=O)N=C1N1CCCN(C(=O)c2ccc(C)s2)CC1` displayed an RP-LC retention time of 857 s.
Molecule `COc1ccc(Cl)cc1N1CC(c2nc(-c3ccc4c(c3)OCO4)no2)CC1=O` (centres undefined) came in with an RP-LC retention time of 941 s.
Next, `COc1ccc(C(O)CN2CCN(c3ccccc3F)CC2)cc1OC` (centres undefined): 642 s; `Cc1cccc(S(=O)(=O)N2CCc3c(c(-c4nnc(-c5ccccc5F)o4)nn3C)C2)c1`: 999 s; `CC(C)c1nc2c(NC(=O)c3ccsc3)cccn2n1`: 866 s.
`Cc1nc(-c2ccc(N3CCN(C(=O)c4ccco4)CC3)nc2)sc1C` showed an RP-LC retention time of 759 s.
Molecule `COc1ccc(OCC(=O)N2CCCC2c2nc(-c3ccccc3)no2)cc1` (centres undefined) registered an RP-LC retention time of 930 s.
As for `COc1ccc(NC(=O)CN2CCc3[nH]c4c(F)c(Cl)ccc4c(=O)c3C2)c(OC)c1`, the RP-LC retention time was found to be 637 s.
Molecule `CCC(=O)N(C)c1nc2ccccc2n(CC(=O)Nc2c(C)cc(C)cc2C)c1=O` displayed an RP-LC retention time of 822 s.
On to `O=C(Cc1ccccc1)NCCc1nc2ccccc2[nH]1`, for which the RP-LC retention time was found to be 545 s.
The molecule `c1cc(-c2noc(C3CCCC3)n2)cc(N2CCOCC2)n1` had an RP-LC retention time of 872 s.
Next, `O=C(c1cc(Sc2cccc(Cl)c2)nc2ccccc12)N1CCN(c2ccccn2)CC1`: 789 s; `Cc1nn2c(CNC(=O)c3ccccc3)c(-c3ccccc3)nc2s1`: 810 s.
The molecule `Cc1csc(NC(=O)CSc2nn3c(=O)c(C)nnc3s2)n1` yielded an RP-LC retention time of 613 s.
Next, `COc1ccc(S(=O)(=O)NC2CCN(C(=O)c3ccnn3C)CC2)cc1`: 658 s.
`O=C(Nc1ccccc1F)c1c(O)c2cccnc2n(-c2cccc(F)c2)c1=O`: the RP-LC retention time was determined as 1250 s.
The molecule `Cc1sc(-c2cc(C(F)(F)F)on2)cc1S(=O)(=O)N1CCCc2ccccc21` displayed an RP-LC retention time of 1300 s.
In turn, `CN(C)CCCNC(=O)c1cn(C)nc1S(=O)(=O)N1CCN(c2ccc(Cl)cc2)CC1` gave an RP-LC retention time of 684 s.
For `O=C(/C=C\c1ccccc1)Nc1ccc(-c2cn3cccnc3n2)cc1`, the RP-LC retention time worked out at 683 s.
On to `Cc1ccc(Cn2c(N3CCCC(C(=O)NCC4CC4)C3)nc3ccsc3c2=O)cc1` (centres undefined), for which the RP-LC retention time turned out to be 894 s.
